Series [1] deals with PC 12 cells. The experiment in a line: Neurite outgrowth assay, PC 12. It is filed as cell-based. The note with it: Rattus norvegicus.
Series [2] deals with T1, zinc-mediated β-amyloid aggregation (Homo sapiens, UniProt P05067). Kind of series: Anti-amyloid aggregation assay, BCA. In kind it is biochemical. The conditions noted are these: detected by BCA. As for the experimental part:
(§1) Anti-Amyloid Aggregation Assay.
(§2) The effects of compounds on inhibition of β-amyloid aggregation were assayed. The levels of β-amyloid aggregates were determined by thioflavin S, BCA or CR assays (Tables 1). Thioflavin S, and Congo red are for in vitro staining of aggregated β-amyloid. Bicinchoninic acid (BCA) assay determines the total protein level or concentration.

The subject of series [3] is SH-SY5Y cells. Kind of series: Neurite synaptic uptake activity (FM1-43), SH-SY5Y. It is filed as cell-based. The note with it: Homo sapiens, NGF positive control taken as 100%, read-out: uptake of dye FM1-43 EC50. The method, then: (§3) Neurite Synaptic Uptake Activity Analysis.
(§4) The effects of compounds on the neuronal synapse uptake of fluorescent indicator FM1-43 were assayed. The uptake of the dye indicated the synaptic function of the neurites. PC 12 and SH-SY5Y cells were used. Cells in experimental groups were treated with a test compound and FM1-43; Cells in positive control were treated with NGF and FM1-43; Cells in negative control were treated with a vehicle and FM1-43. The fluorescence in the positive control were taken as 100%.

The test system of series [4] is hippocampus-lesioned mice. Kind of series: Rotarod test in Alzheimer disease model. It is filed as in vivo. The conditions noted are these: daily i.p. 10 mg/kg for 30 days, compared to vehicle. The text has this:
To test the effect of the compound in improving the learning ability of the animals in Alzheimer disease model, β-aggregates-induced hippocampal lesions were used to generate learning-impaired mice.

Series [5] concerns SH-SY5Y cells. The experiment in a line: Neurite outgrowth assay, SH-SY5Y. In kind it is cell-based. The note with it: Homo sapiens.
Series [6] addresses T2, human histone deacetylases (HDAC) 8 (Homo sapiens, UniProt Q9BY41).
T2 sequence (Q9BY41 1-377): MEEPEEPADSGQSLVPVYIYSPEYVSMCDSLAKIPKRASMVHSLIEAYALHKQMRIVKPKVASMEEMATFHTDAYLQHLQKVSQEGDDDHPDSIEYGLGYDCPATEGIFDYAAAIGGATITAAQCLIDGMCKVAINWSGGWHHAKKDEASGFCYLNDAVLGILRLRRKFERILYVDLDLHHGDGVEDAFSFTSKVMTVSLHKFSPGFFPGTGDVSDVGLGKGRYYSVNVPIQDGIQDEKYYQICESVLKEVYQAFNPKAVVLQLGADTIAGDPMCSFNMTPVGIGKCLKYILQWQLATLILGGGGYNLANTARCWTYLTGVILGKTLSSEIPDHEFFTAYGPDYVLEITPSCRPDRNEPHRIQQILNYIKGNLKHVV
Kind of series: HDAC enzymatic assay, HDAC8. It is filed as biochemical. The note with it: HDAC8; read-out: IC50 HDAC8 (grading).

The target of series [7] is T3, human histone deacetylases (HDAC) 6 (Homo sapiens, UniProt Q9UBN7).
T3 sequence (Q9UBN7 1-1215): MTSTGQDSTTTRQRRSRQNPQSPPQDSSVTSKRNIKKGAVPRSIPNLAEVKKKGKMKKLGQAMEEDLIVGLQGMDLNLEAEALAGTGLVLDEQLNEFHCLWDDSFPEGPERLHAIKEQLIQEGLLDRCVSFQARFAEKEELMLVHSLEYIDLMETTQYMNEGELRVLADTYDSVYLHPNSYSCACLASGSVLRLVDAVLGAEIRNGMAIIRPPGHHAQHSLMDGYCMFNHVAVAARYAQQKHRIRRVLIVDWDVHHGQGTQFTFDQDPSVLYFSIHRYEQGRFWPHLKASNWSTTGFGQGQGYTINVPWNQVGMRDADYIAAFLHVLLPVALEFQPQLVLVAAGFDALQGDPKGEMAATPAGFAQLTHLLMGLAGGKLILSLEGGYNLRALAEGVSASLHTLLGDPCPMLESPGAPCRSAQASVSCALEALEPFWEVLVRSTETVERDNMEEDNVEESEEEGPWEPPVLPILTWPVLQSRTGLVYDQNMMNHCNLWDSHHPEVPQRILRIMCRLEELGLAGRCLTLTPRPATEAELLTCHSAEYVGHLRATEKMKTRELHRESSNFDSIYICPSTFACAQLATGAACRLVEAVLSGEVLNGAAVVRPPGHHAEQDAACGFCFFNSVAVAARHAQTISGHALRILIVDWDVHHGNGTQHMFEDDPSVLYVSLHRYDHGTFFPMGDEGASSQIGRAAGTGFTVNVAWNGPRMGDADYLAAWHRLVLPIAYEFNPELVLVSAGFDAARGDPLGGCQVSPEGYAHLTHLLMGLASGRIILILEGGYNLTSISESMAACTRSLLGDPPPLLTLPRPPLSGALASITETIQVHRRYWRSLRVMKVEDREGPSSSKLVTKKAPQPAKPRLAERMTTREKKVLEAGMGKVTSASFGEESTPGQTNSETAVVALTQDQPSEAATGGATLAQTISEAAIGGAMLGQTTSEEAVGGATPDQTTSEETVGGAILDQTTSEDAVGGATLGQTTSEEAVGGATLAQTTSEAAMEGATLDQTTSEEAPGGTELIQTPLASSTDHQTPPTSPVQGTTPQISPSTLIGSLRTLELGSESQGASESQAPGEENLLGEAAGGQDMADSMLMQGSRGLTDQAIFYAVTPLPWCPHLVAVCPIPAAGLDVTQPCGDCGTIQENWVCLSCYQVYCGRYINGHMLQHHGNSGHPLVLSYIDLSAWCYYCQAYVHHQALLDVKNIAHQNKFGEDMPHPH
The experiment in a line: HDAC enzymatic assay, HDAC6. The note with it: for IC50: HDAC6, read-out: IC50 HDAC6 (grading); for selective inhibitions on HDAC6: HDAC6 versus other HDACs. In kind it is biochemical.

For series [8], the target named is human histone deacetylases (HDAC) 1 (Homo sapiens, UniProt Q13547). Kind of series: HDAC enzymatic assay, HDAC1. In kind it is biochemical. The conditions noted are these: read-out: IC50 HDAC1 (grading).
human histone deacetylases (HDAC) 1, sequence (Q13547 whole entry): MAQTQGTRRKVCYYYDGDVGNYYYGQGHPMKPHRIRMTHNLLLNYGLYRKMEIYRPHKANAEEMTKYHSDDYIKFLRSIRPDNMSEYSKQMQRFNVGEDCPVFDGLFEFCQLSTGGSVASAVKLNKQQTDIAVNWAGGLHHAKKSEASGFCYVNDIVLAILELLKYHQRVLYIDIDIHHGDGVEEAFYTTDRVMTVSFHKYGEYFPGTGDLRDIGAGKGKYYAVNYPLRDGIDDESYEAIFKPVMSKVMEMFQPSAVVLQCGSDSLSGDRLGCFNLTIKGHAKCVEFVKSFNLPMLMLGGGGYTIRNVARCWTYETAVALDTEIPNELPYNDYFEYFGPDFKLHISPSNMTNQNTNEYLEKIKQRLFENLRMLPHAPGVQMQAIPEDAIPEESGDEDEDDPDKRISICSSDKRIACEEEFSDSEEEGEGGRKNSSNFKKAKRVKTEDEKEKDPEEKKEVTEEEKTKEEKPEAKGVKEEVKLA
Series [9] concerns the target T1, zinc-mediated β-amyloid aggregation. Kind of series: Anti-amyloid aggregation assay, CR (Congo red). The conditions noted are these: detected by CR. It is filed as biochemical. As for the experimental part: as §1, §2
Series [10] relates to PC 12 cells. The experiment in a line: Neurite synaptic uptake activity (FM1-43), PC 12. In kind it is cell-based. The conditions noted are these: Rattus norvegicus, NGF positive control taken as 100%, read-out: uptake of dye FM1-43 EC50. As for the experimental part:
as §3, §4

For series [11], the target named is T1, zinc-mediated β-amyloid aggregation. The experiment in a line: Anti-amyloid aggregation assay, thioflavin S. In kind it is biochemical. The conditions noted are these: detected by thioflavin S. As for the experimental part:
as §1, §2

Series [12] can be described thus: MTT or SRB assay for cytotoxicity, A549. It is filed as cell-based. The note with it: human, A549 cells, read-out: cytotoxicity IC50 (grading) A549. The method, then:
(§5) MTT or SRB Assays for Cytotoxicities of HDAC Inhibitors.
(§6) These compounds were assayed for cytotoxicities to the following cells: A549 cells (adenocarcinomic human alveolar basal epithelial cells), HCT-116 cells (human colon carcinoma cells). PANC-1 cells (human pancreatic carcinoma, epithelial-like cell line) and HepG2 cells (human liver hepatocellular carcinoma cell line), neuronal cells PC12 (rat pheochromocytoma cell line) and SH-SY5Y (human neuroblastoma cell line). MTT (3-[4,5-dimethylthiazol-2-yl]2,5-diphenyl-tetrazolium bromide) reduction was collaborated by using trypan blue exclusion assay.

The nature of series [13]: MTT or SRB assay for cytotoxicity, PANC1. In kind it is cell-based. The conditions noted are these: human, PANC-1 cells, read-out: cytotoxicity IC50 (grading) PANC1. As for the experimental part: as §5, §6
A short description of series [14]: MTT or SRB assay for cytotoxicity, HCT116. It is filed as cell-based. The note with it: human, HCT-116 cells, read-out: cytotoxicity IC50 (grading) HCT116. The method, then: as §5, §6
Series [15] is described as follows: MTT or SRB assay for cytotoxicity, HepG2. In kind it is cell-based. The note with it: human, HepG2 cells, read-out: cytotoxicity IC50 (grading) HepG2. The method, then: as §5, §6

Molecules are shown by their SMILES.

T1 sequence (P05067 672-711 limits assumed): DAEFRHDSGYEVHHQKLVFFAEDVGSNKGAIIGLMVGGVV

Turning to `Cc1nc2cc(/C=C/C(=O)NO)ccc2c(=O)n1CCc1ccccc1` [Compound 1f, (2E)-3-(3,4-dihydro-2-methyl-4-oxo-3-phenethylquinazolin-7-yl)-N-hydroxyacrylamide], the EC50 in series [1] turned out to be 6.49 ± 0.78 µM; in series [3], 6.77 ± 0.96 µM; in series [5], 6.77 ± 0.96 µM; in [10], 6.49 ± 0.78 µM. Further, the concentration for half-maximal inhibition (IC50) in series [2] is 11.7 µM; in series [6], 1 to 10 µM; in series [7], less than 0.1 µM; in series [8] it was 1 to 10 µM; in series [9] it was 43.1 µM; in series [11] it was 9.5 µM. The “learning performance in rotarod test” value in series [4] is “improved learning performance”. Also, the “selective inhibitions on HDAC6” value in [7] is “selective inhibitions on HDAC6”.

In the case of `CCc1nc2cc(/C=C/C(=O)NO)ccc2c(=O)n1CCc1ccccc1` [Compound 1i, (2E)-3-(2-ethyl-3,4-dihydro-4-oxo-3-phenethylquinazolin-7-yl)-N-hydroxyacrylamide], the melting point fell in the range of 209 to 211 °C. Further, the EC50 in series [1] was 7.21 ± 0.32 µM. Besides, the IC50 in series [2] turned out to be 3.9 µM. Also, the half-maximal effective concentration (EC50) in series [3] came out at 0.88 ± 0.45 µM. Moreover, the IC50 in [12] is no less than 10 µM. The same molecule yielded an EC50 in series [5] of 0.88 ± 0.45 µM. Further, in series [13], the IC50 was no less than 10 µM. Moreover, in series [6], the IC50 fell in the range of 1 to 10 µM. In addition, in [7], the concentration for half-maximal inhibition (IC50) is less than 0.1 µM and the “selective inhibitions on HDAC6” value was “selective inhibitions on HDAC6”. Also, the IC50 in series [14] is no less than 10 µM. The 50% inhibitory concentration (IC50) in series [8] was in the range of 1 to 10 µM. In series [15], the concentration for half-maximal inhibition (IC50) was in the range of 1 to 10 µM. The IC50 in [9] was determined as 5.5 µM. The EC50 in series [10] was 7.21 ± 0.32 µM. The molecule also gave a half-maximal inhibitory concentration (IC50) in [11] of 6.8 µM.

(Values after patent US9387209B2, “Histone deacetylases (HDACs) inhibitors” (ANNJI PHARMACEUTICAL CO., LTD., priority 2012, dated 2016).)
